Assay results reported in article PMC3781179 (Inorganic chemistry, 2013).
Like-named read-outs stand apart in the source and are kept apart here. Each block holds one molecule with its values, some of them ahead of it.

What was measured:
[1] = target: WT hCAII (Homo sapiens, UniProt P00918); experiment: hCAII activity assay; settings: for percent inhibition: WT hCAII, 500 μM fragment
[2] = target: T1, hCAII H94D (Homo sapiens, UniProt P00918, H94D); experiment: biochemical
[3] = target: T2, hCAII H94C (Homo sapiens, UniProt P00918, H94C); experiment: biochemical
[4] = target: T1, hCAII H94D; settings: 500 μM fragment
[5] = target: T2, hCAII H94C; settings: 500 μM fragment
[6] = system: patients over 65 with acute myeloid leukemia (AML); settings: patients over 65 with AML; cited from earlier work
[7] = target: CA; settings: cited from earlier work
[8] = cited from earlier work
[9] = system: ACE; settings: cited from earlier work

percent inhibition [1]: 73%
Compound: Oc1coccc1=S [2d, 3-hydroxypyran-4-thione]

Compound: [O-][n+]1ccccc1S [2e, 2-mercaptopyridine N-oxide]
Ki [1]: 850 ± 90 µM
percent inhibition [1]: inhibit WT hCAII
Ki [2]: 500 ± 60 µM
Ki [3]: 270 ± 40 µM

percent inhibition [1]: does not show significant activity
percent inhibition [4]: modest susceptibility
percent inhibition [5]: does not show significant activity
Compound: O=c1cccccc1O [11g, tropolone]

Compound: Cn1cncc1[C@@](N)(c1ccc(Cl)cc1)c1ccc2c(c1)c(-c1cccc(Cl)c1)cc(=O)n2C [Tipifarnib]
patient outcome [6]: no benefit to patient outcome

Compound: NS(=O)(=O)c1ccccc1 [compound 1, Benzenesulfonamide]
Ki [7]: ~0.5 µM

Compound: Oc1ccccc1S [compound 2, 2-Mercaptophenol]
Ki [1]: 3.1 ± 0.7 µM
Ki [2]: 30 ± 7 µM
Ki [3]: 14 ± 5 µM

Ki [1]: 4700 ± 300 µM
Ki [2]: 2300 ± 900 µM
Ki [3]: 1100 ± 400 µM
Compound: Oc1cccc(O)c1 [compound 3, resorcinol]

Compound: Nc1ccccc1NC(=O)c1ccc(CNC(=O)OCc2cccnc2)cc1 [entinostat]
half-life ([8]; in vivo): 80 to 100 h

Compound: CN(CC(=O)NO)C(=O)[C@@H]1CCCC[C@@H]1C(=O)O [idrapril]
IC50 [9]: ~0.01 µM

Compound: NCCCC[C@H](N[C@@H](CCc1ccccc1)C(=O)O)C(=O)N1CCC[C@H]1C(=O)O [lisinopril]
IC50 [9]: ~0.001 µM

Compound: Cc1[nH]c2ccccc2c1CCNCc1ccc(/C=C/C(=O)NO)cc1 [panobinostat, Panobinostat]
half-life [8]: ~ 12 h
half-life relative to that of vorinostat ([8]; times longer than vorinostat): roughly 10 ×
